Patent US6521619B2, “Aryl phenylcyclopropyl sulfide derivatives and their use as cell adhesion inhibiting anti-inflammatory and immune suppressive agents” (Icos Corporation, priority 2000, dated 2003)

Key:
[1] = biological target: T1, ICAM-1/LFA-1 interaction (recombinant LFA-1, biotinylated recombinant ICAM-1/Ig) (Homo sapiens, UniProt P20701); assay: ICAM-1/LFA-1 Biochemical Interaction Assay (46A); format: binding; settings: for inhibition at 2 µM: read-out: % inhibition
T1 construct: Recombinant LFA-1 (100 mL of 0.7 mg/ml, ICOS Corporation) in D-PBS is then added to each well
T1 sequence (P20701 26-1170): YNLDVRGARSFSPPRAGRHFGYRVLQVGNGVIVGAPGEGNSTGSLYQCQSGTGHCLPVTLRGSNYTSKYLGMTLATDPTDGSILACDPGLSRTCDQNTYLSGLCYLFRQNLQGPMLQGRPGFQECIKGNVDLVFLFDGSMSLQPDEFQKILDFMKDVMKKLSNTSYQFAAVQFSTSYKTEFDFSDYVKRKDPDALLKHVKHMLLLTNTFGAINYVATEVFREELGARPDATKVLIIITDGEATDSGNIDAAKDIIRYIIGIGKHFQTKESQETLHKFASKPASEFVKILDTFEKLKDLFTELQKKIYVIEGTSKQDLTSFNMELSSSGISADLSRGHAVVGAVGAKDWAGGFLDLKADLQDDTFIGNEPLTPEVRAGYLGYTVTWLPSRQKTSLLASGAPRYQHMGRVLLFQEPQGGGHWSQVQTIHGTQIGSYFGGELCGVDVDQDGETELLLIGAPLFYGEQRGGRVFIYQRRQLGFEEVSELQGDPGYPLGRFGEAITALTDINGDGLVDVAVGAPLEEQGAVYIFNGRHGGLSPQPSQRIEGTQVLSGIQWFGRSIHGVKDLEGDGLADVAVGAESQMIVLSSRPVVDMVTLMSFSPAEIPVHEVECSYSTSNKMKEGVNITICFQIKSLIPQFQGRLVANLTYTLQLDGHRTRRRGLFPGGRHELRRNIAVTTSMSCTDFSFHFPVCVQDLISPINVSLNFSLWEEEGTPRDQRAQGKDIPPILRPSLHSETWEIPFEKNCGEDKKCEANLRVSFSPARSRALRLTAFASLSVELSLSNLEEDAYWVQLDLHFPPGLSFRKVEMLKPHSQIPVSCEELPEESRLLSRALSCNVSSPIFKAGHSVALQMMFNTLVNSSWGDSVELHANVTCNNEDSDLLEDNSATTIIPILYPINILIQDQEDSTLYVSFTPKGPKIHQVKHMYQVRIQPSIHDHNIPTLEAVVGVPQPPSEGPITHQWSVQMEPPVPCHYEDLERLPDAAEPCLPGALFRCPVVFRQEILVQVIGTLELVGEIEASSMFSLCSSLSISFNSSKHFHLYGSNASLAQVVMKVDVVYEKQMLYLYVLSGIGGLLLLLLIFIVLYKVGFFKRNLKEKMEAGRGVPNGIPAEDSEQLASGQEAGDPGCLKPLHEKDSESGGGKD
T1 sequence (P05107 23-769 partner): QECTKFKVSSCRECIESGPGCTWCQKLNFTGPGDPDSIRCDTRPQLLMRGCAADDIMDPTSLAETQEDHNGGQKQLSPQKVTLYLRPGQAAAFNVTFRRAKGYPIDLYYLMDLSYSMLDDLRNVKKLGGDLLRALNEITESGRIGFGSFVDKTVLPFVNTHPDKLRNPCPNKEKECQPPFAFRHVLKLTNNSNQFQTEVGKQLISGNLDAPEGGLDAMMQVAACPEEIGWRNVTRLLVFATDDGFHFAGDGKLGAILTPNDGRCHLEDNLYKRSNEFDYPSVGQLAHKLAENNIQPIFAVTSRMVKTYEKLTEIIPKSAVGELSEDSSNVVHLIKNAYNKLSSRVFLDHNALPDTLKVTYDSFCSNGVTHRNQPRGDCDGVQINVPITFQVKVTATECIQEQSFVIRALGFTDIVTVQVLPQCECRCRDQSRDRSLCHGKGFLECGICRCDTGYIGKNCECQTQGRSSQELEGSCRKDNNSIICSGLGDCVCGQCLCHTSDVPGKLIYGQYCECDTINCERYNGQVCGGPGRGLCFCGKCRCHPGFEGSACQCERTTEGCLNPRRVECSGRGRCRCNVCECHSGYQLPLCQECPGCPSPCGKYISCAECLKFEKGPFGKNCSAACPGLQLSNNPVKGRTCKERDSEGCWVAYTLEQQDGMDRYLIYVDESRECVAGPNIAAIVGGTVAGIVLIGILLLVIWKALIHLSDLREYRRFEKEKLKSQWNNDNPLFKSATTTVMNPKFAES
Protocol: Compounds that antagonize the interaction between ICAM-1 and LFA-1 can be identified, and their activities quantitated, using both biochemical and cell-based adhesion assays. A primary biochemical assay, described below as assay 46A, was utilized to measure the ability of the present compounds to block the interaction between the integrin LFA-1 and its adhesion partner ICAM-1.
46A. ICAM-1/LFA-1 Biochemical Interaction Assay
In the biochemical assay, 100 mL of anti-LFA-1 antibody (ICOS Corporation) at a concentration of 5 mg/ml in Dulbecco's phosphate-buffered saline (D-PBS) is used to coat wells of a 96-well microtiter plate overnight at 4° C. The wells are then washed twice with wash buffer (D-PBS w/o Ca^++ or Mg^++, 0.05% Tween 20) and blocked by addition of 200 mL of D-PBS, 5% fish skin gelatin. Recombinant LFA-1 (100 mL of 0.7 mg/ml, ICOS Corporation) in D-PBS is then added to each well. Incubation continues for 1 hour at room temperature and the wells are washed twice with wash buffer. Serial dilutions of compounds being assayed as ICAM-1/LFA-1 antagonists, prepared as 10 mM stock solutions in dimethyl sulfoxide (DMSO), are diluted in D-PBS, 2 mM MgCl2, 1% fish skin gelatin and 50 mL of each dilution added to duplicate wells. This is followed by addition of […] of 0.8 mg/ml biotinylated recombinant ICAM-1/Ig (ICOS Corporation) to the wells and the plates are incubated at room temperature for 1 hour The wells are then washed twice with wash buffer and 100 mL of Europium-labeled Streptavidin (Wallac Oy) diluted 1:100 in Delfia assay buffer (Wallac Oy) are added to the wells. Incubation proceeds for 1 hour at room temperature. […] Incubation proceeds for 5 minutes with constant mixing.
where “background” refers to wells that are not coated with anti-LFA-1 antibody.

[2] = system: JY-8 cells (expressing LFA-1) adhering to immobilized ICAM-1; assay: ICAM-1/JY-8 Cell Adhesion Assay (46B); format: cell-based, human; settings: JY-8 cell adhesion to ICAM-1; for inhibition at 1 µM: @ 1 μM compound (cell); for inhibition at 2 µM / % inhibition: @ 2 μM compound (cell)
Protocol: Biologically relevant activity of the compounds in this invention was confirmed using a cell-based adhesion assay, (described below as assay 46B) which measured the ability of the present compounds to block the adherence of JY-8 cells (a human EBV-transformed B cell line expressing LFA-1 on its surface) to immobilized ICAM-1.
46B. ICAM-1 /JY-8 Cell Adhesion Assay
For measurement of inhibitory activity in the cell-based adhesion assay, 96-well microtiter plates are coated with 70 μL of recombinant ICAM-1/g (ICOS Corporation) at a concentration of 5 μg/mL in D-PBS w/o Ca^++ or Mg^++ overnight at 4° C. The wells are then washed twice with D-PBS and blocked by addition of 200 μL of D-PBS, 5% fish skin gelatin by incubation for 1 hour at room temperature. Fluorescent tagged JY-8 cells (a human EBV-transformed B cell line expressing LFA-1 on its surface; 50 μL at 2×10^6 cells/ml in RPMI 1640 (standard cell culture medium)/1% fetal bovine serum) are added to the wells. For fluorescent labeling of JY-8 cells, 5×10^6 cells washed once in RPMI 1640 are resuspended in 1 mL of RPMI 1640 containing 2 μM Calceiun AM (MolecularProbes), are incubated at 37° C for 30 minutes and washed once with RPMI-1640/1% fetal bovine serum. Dilutions of compounds to be assayed for ICAM-1/LFA-1 antagonistic activity are prepared in RPMI-1640/1% fetal bovine serum from 10 mM stock solutions in DMSO and 50 μL are added to duplicate wells. Microtiter plates are incubated for 45 minutes at room temperature and the wells are washed gently once with RPMI-1640/1% fetal bovine serum. Fluorescent intensity is measured in a fluorescent plate reader with an excitation wavelength at 485 nm and an emission wavelength at 530 nm. The percent inhibition of a candidate compound at a given concentration is calculated using the following equation: [formula]
and these concentration/inhibition data are used to generate dose response curves, from which IC50 values are derived.

Molecule	inhibition at 4 µM ([1]; @ 4 μM compound) [%]	inhibition at 2 µM ([1]; @ 2 μM compound) [%]	inhibition at 2 µM ([2]; Homo sapiens) [%]	further results
O=C(NCCCN1CCCC1=O)C1CC1c1ccc(Sc2ccccc2N2CCCCC2)c(C(F)(F)F)c1 (racemic) [Example 9, (±)-(2-Piperidin-1-ylphenyl)[2-trifluoromethyl-4-(trans-(2-((3-(1-pyrrolidin-2-onyl)-prop-1-ylamino)carbonyl)cycloprop1-yl)phenyl]sulfide]	95	–	–	inhibition at 4 µM ([2]; Homo sapiens, @ 4 μM compound): 76%
CN(CCCN1CCCC1=O)C(=O)C1CC1c1ccc(Sc2ccccc2N2CCOCC2)c(C(F)(F)F)c1 (racemic) [Example 13, (±)-(2-Morpholin-1-ylphenyl)[2-trifluoromethyl-2-(trans-(2-((3-(1-pyrrolidin-2-onyl)-propyl-N-methylamino)carbonyl)cycloprop-1-yl)phenyl]sulfide]	93	–	–	inhibition at 1 µM ([2]; Homo sapiens): 86%
O=C(NCCCN1CCCC1=O)C1CC1c1ccc(Sc2ccccc2Br)c(Cl)c1Cl (racemic) [Example 14, (±)-(2-Bromophenyl)[2,3-dichloro-4-(trans-(2-((3-(1-pyrrolidin-2-onyl)-prop-1-ylamino)carbonyl)cycloprop-1-yl)phenyl]sulfide]	92	–	–	inhibition at 1 µM ([2]; Homo sapiens): 80%
CC(C)c1ccccc1Sc1ccc(C2CC2C(=O)NCCC(=O)O)c(Cl)c1Cl (racemic) [Example 16, (±)-(2-Isopropylphenyl)[2,3-dichloro-4-(trans-(2-(2-carboxyethylamino)carbonyl)cycloprop-1-yl)phenyl]sulfide]	–	96	88	–
CC(C)c1ccccc1Sc1ccc(C2CC2C(=O)N2CCC(C(=O)O)CC2)c(Cl)c1Cl (racemic) [Example 18, (±)-(2-Isopropylphenyl)[2,3-dichloro-4-(trans-(2-(4-carboxypiperidin-1-yl)carbonyl)cycloprop-1-yl)phenyl]sulfide]	–	93	84	–
CC(=O)N1CCN(C(=O)C2CC2c2ccc(Sc3ccccc3C(C)C)c(Cl)c2Cl)CC1 (racemic) [Example 21, (±)-(2-Isopropylphenyl)[2,3-dichloro-4-(trans-(2-(4-acetylpiperazin-1-yl)carbonyl)cycloprop-1-yl)phenyl]sulfide]	–	94	88	–
(±)-(2-Piperidin-1-ylphenyl)[2-trifluoromethyl-4-(trans-(2-((3-(1-pyrrolidin-2-onyl)-prop-1-ylamino)carbonyl)cycloprop1-yl)phenyl]sulfide [Example 9]	–	–	–	% inhibition ([1]; @ 2 μM compound): 97% @ 2 μM; % inhibition [2]: 89% @ 2 μM
(±)-(3-Morpholin-1-ylphenyl)[2-trifluoromethyl-4-(trans-(2-((3-(1-pyrrolidin-2-onyl)-prop-1-ylamino)carbonyl)cycloprop-1-yl)phenyl]sulfide [Example 11]	–	–	–	% inhibition ([1]; @ 4 μM compound): 96% @ 4 μM; % inhibition [2]: 86% @ 2 μM
